Columns and labels:
[1] = Solubility test in phosphate buffer solution (PBS, pH7.4); format: physicochemical; conditions: PBS pH 7.4, room temperature, LC-UV
Procedure: 1.5 mg of the test compound was taken, and PBS was added thereto to prepare the test solution with theoretical concentration of 2 mg·mL^−1. The test solution was ultrasonicated for 10 min, and rotated on a rotating tray at room temperature for at least 8 h. After the rotation treatment, the test solution was ultrasonicated for 10 min and centrifuged at 13000 rpm for 15 min. 100 μL of supernatant was transferred to a 0.6 mL new tube for spinning and rinsing for 5 min. 500 μL of supernatant was transferred into the above rinsed 0.6 mL tube. Then the tube was centrifuged at 13000 rpm for 15 min, and the supernatant was taken (or diluted) for analysis by LC-UV. Sample concentration was quantified by standard curve fitting (3 points).

[2] = tested on: TNF-α secretion in THP-1 cells; assay: cells; conditions: Homo sapiens, THP-1, 5 h, read-out: IC50 in inhibiting TNF-α secretion in THP-1 cells
Procedure: Method for Determining THP-1 Cell Activity
In this experiment, TNF-α secretion was triggered by lipopolysaccharide (LPS) incubation.
After induced differentiation under the condition of 37° C. and 5% CO2 for 48 h, adherent macrophages were produced. Then PMA supernatant was removed and PBS was used to wash the cells once. In each case, all the drugs were dissolved in 100% DMSO to obtain an initial concentration of 10 mM. The drugs were filtered with 0.22 μm sterile filter membrane before use. LPS was dissolved in PBS with an initial concentration of 1 mg/mL. During use, it was diluted to 20 μg/mL with PBS. […] 200 μL of drugs were added to each well, and 50 μL of 20 μg/ml LPS (final concentration: 4 μg/mL) was added to each well. They were incubated in a 5% CO 2 incubator at 37° C. for 5 h. […]
Determination by using TNF-α ELISA kit: the amount of TNF-α was determined by R&D System Human TNF-α ELISA kit. […] 50 μL of Stop Solution (2N sulfuric acid stop solution) was added to each well and evenly mixed, and the absorbance at 450 nm was measured with microplate reader within 30 min. Compared with the fluorescence intensity ratio of the control group, the inhibition rate of the compound at each concentration was calculated, and then the IC 50 value of the compound was calculated by fitting the nonlinear curve of logarithmic concentration-inhibition rate with GraphPad Prism5.

Structure (SMILES) | Solubility in phosphate buffer solution (PBS, pH 7.4) [1] | IC50 [2]
CC(C)(O)CCn1cc2cc(NC(=O)c3cccc(C(F)(F)F)n3)c(C(C)(C)O)cc2n1 [BAY-1834845] | 6.7 uM | 
CN(C)CCn1cc2cc(NC(=O)c3cccc(C(F)(F)F)n3)c(C(C)(C)O)cc2n1 [Compound 1, N-(2-(2-(dimethylamino)ethyl)-6-(2-hydroxypropan-2-yl)-2H-indazol-5-yl)-6-(trifluoromethyl)pyridin-2-carboxamide] |  | 55 nM

Reference: patent publication US11897863B2, “Indazole amine derivative, preparation method therefor and medical use thereof” (ZHEJIANG HISUN PHARMACEUTICAL CO., LTD., priority 2018, dated 2024)
